Reference: patent US20230203081A1, “LINCOSAMIDE ANTIBIOTICS AND USES THEREOF” (President and Fellows of Harvard College, priority 2020, published 2023)
≈ marks a conversion by molar mass, not a printed value.

Key:
Format in all cases: cell-based
[1] = tested on: broad panel of different clinical isolates; assay: microbe, parasite or virus in culture
Outline: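 Per CLSI, MICs by broth microdilution or agar dilution; strains other than streptococci and anaerobes were sub-cultured overnight at 35° C on blood agar, with a final broth inoculum of 5×10^5 CFU/mL.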

P. aeruginosa ATCC 27853 = assay: MIC (broth microdilution or agar dilution, CLSI); settings: Pseudomonas aeruginosa, ATCC27853; P. aeruginosa HAV#009, ATCC 27853; read-out: MIC
Outline: (§1)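 MICs were measured by CLSI broth microdilution or agar dilution over 128-0.06 μg/mL test compound at 2.5% final DMSO, in triplicate. Non-streptococcal, aerobic strains were grown overnight at 35° C on sheep blood agar, suspended in cation-adjusted Mueller-Hinton broth to 0.5 McFarland, and diluted to 5×10^5 CFU/mL.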

P. aeruginosa ΔAmex OprM = assay: MIC (broth microdilution or agar dilution, CLSI); settings: Pseudomonas aeruginosa
Outline: as §1

E. faecium Line R & VRE = assay: MIC (broth microdilution or agar dilution, CLSI); settings: Enterococcus faecium, E. faecium HAV#319, Line R & Vanco R, read-out: MIC
Outline: as §1

`CO/N=C(\C(=O)N[C@@H]1C(=O)N2C(C(=O)O)=C(CSc3nc(=O)c(=O)[nH]n3C)CS[C@H]12)c1csc(N)n1` [Ceftriaxone] was tested. Which MIC ([1]; Acinetobacter baumannii, A. baumannii HAV#651, Clinical) did it give?
Its MIC is 4 µg/mL (≈ 7.21 µM).

What about the MIC ([1]; Acinetobacter baumannii, A. baumannii HAV#652 Clinical) of the same molecule?
Its MIC is 16 µg/mL (≈ 28.9 µM).

What about the MIC ([1]; Acinetobacter baumannii, A. baumannii HAV#653, Clinical) of the same molecule?
Its MIC is 2 µg/mL (≈ 3.61 µM).

And the MIC ([1]; Acinetobacter baumannii, A. baumannii HAV#654, Clinical)?
Its MIC is 4 µg/mL (≈ 7.21 µM).

What about the MIC ([1]; Acinetobacter baumannii, A. baumannii HAV#655, Clinical) of the same molecule?
Its MIC is 64 µg/mL (≈ 115 µM).

And the MIC ([1]; Acinetobacter baumannii, A. baumannii HAV#656, Clinical)?
The MIC was 64 µg/mL (≈ 115 µM).

What about the MIC ([1]; Acinetobacter baumannii, A. baumannii HAV#657, Clinical) of the same molecule?
Its MIC is 64 µg/mL (≈ 115 µM).

What about the MIC ([1]; Acinetobacter baumannii, A. baumannii HAV#658, Clinical) of the same molecule?
The MIC was 16 µg/mL (≈ 28.9 µM).

What about the MIC ([1]; Acinetobacter baumannii, A. baumannii HAV#659, Clinical) of the same molecule?
Its MIC is 32 µg/mL (≈ 57.7 µM).

What about the MIC ([1]; Acinetobacter baumannii, A. baumannii HAV#660, Clinical) of the same molecule?
The MIC was 32 µg/mL (≈ 57.7 µM).

And the MIC ([1]; Acinetobacter baumannii, A. baumannii HAV#661, Clinical)?
The MIC was 2 µg/mL (≈ 3.61 µM).

What about the MIC ([1]; Acinetobacter baumannii, A. baumannii HAV#662, Clinical) of the same molecule?
The MIC was 32 µg/mL (≈ 57.7 µM).

And the MIC ([1]; Acinetobacter baumannii, A. baumannii HAV#663, Clinical)?
The MIC was 16 µg/mL (≈ 28.9 µM).

And the MIC ([1]; Acinetobacter baumannii, A. baumannii HAV#664, Carbapenem R)?
Its MIC is 64 µg/mL (≈ 115 µM).

What about the MIC ([1]; Enterococcus faecalis, E. faecalis HAV#607, Clinical) of the same molecule?
The MIC was over 256 µg/mL.

What about the MIC ([1]; Enterococcus faecalis, E. faecalis HAV#608, Clinical) of the same molecule?
The MIC was over 256 µg/mL.

And the MIC ([1]; Enterococcus faecalis, E. faecalis HAV#609, Clinical)?
Its MIC is over 256 µg/mL.

And the MIC ([1]; Enterococcus faecalis, E. faecalis HAV#610, Clinical)?
The MIC was over 256 µg/mL.

And the MIC ([1]; Enterococcus faecalis, S. faecalis 5060, Line R & Vanco R)?
Its MIC is over 256 µg/mL.

And the MIC ([1]; Enterococcus faecalis, S. faecalis 5074, Line R)?
Its MIC is 256 µg/mL (≈ 462 µM).

And the MIC ([1]; Enterococcus faecalis, VRE, E. faecalis HAV#606, Clinical)?
The MIC was over 256 µg/mL.

And the MIC ([1]; Enterococcus faecium, E. faecium HAV#327, Clinical)?
Its MIC is 0.5 µg/mL (≈ 0.902 µM).

And the MIC ([1]; Enterococcus faecium, E. faecium HAV#328, Clinical)?
The MIC was over 128 µg/mL.

What about the MIC ([1]; Enterococcus faecium, E. faecium HAV#329, Clinical) of the same molecule?
Its MIC is over 256 µg/mL.

And the MIC ([1]; Escherichia coli, E. coli HAV#503, Clinical)?
Its MIC is over 128 µg/mL.

What about the MIC ([1]; Escherichia coli, E. coli HAV#511, Clinical) of the same molecule?
Its MIC is 16 µg/mL (≈ 28.9 µM).

And the MIC ([1]; Escherichia coli, E. coli HAV#512, Clinical)?
Its MIC is under 0.06 µg/mL.

And the MIC ([1]; Escherichia coli, E. coli HAV#513, Clinical)?
The MIC was 0.125 µg/mL (≈ 0.225 µM).

What about the MIC ([1]; Escherichia coli, E. coli HAV#514, Clinical) of the same molecule?
The MIC was 0.125 µg/mL (≈ 0.225 µM).

What about the MIC ([1]; Escherichia coli, E. coli HAV#516, ESBL-producing) of the same molecule?
The MIC was 64 µg/mL (≈ 115 µM).

And the MIC ([1]; Klebsiella pneumoniae, K. pneumoniae HAV#404, Clinical)?
Its MIC is 64 µg/mL (≈ 115 µM).

And the MIC ([1]; Klebsiella pneumoniae, K. pneumoniae HAV#405, Clinical)?
The MIC was 64 µg/mL (≈ 115 µM).

And the MIC ([1]; Klebsiella pneumoniae, K. pneumoniae HAV#406, Clinical)?
Its MIC is under 0.06 µg/mL.

What about the MIC ([1]; Klebsiella pneumoniae, K. pneumoniae HAV#407, Clinical) of the same molecule?
The MIC was 1 µg/mL (≈ 1.8 µM).

What about the MIC ([1]; Klebsiella pneumoniae, K. pneumoniae HAV#408, Clinical) of the same molecule?
The MIC was 2 µg/mL (≈ 3.61 µM).

And the MIC ([1]; Klebsiella pneumoniae, K. pneumoniae HAV#409, ESBL-producing)?
Its MIC is 128 µg/mL (≈ 231 µM).

What about the MIC ([1]; Neisseria gonorrhoeae, N. gonorrhoeae HAV#701, Clinical) of the same molecule?
The MIC was 0.125 µg/mL (≈ 0.225 µM).

What about the MIC ([1]; Neisseria gonorrhoeae, N. gonorrhoeae HAV#702, Clinical) of the same molecule?
Its MIC is 0.25 µg/mL (≈ 0.451 µM).

And the MIC ([1]; Staphylococcus aureus, MRSA, S. aureus HAV#017, MRSA Col(Colindale, England))?
The MIC was over 128 µg/mL.

And the MIC ([1]; Staphylococcus aureus, MRSA, S. aureus HAV#218, Line R)?
Its MIC is 32 µg/mL (≈ 57.7 µM).

And the MIC ([1]; Staphylococcus aureus, MRSA, S. aureus HAV#220, Line R)?
The MIC was over 128 µg/mL.

And the MIC ([1]; Staphylococcus aureus, MSSA, S. aureus HAV#219, Line R)?
The MIC was 2 µg/mL (≈ 3.61 µM).

What about the MIC ([1]; Staphylococcus aureus, S. aureus HAV#052, mecA, norA, fosB, blaZ) of the same molecule?
The MIC was 64 µg/mL (≈ 115 µM).

What about the MIC ([1]; Staphylococcus aureus, S. aureus HAV#053 mecA, norA, fosB) of the same molecule?
Its MIC is 128 µg/mL (≈ 231 µM).

What about the MIC ([1]; Staphylococcus aureus, S. aureus HAV#054, mecA, norA, spcl, aad1, fosB, ermA, aac6′-aph2″, blaZ) of the same molecule?
The MIC was over 256 µg/mL.

What about the MIC ([1]; Staphylococcus aureus, S. aureus HAV#211, Clinical) of the same molecule?
Its MIC is over 64 µg/mL.

What about the MIC ([1]; Staphylococcus aureus, S. aureus HAV#212, Clinical) of the same molecule?
The MIC was 32 µg/mL (≈ 57.7 µM).

And the MIC ([1]; Staphylococcus aureus, S. aureus HAV#213, Clinical)?
Its MIC is 1 µg/mL (≈ 1.8 µM).

And the MIC ([1]; Staphylococcus aureus, S. aureus HAV#214, Clinical)?
Its MIC is 4 µg/mL (≈ 7.21 µM).

And the MIC ([1]; Staphylococcus aureus, S. aureus HAV#215, Clinical)?
The MIC was 1 µg/mL (≈ 1.8 µM).

What about the MIC ([1]; Staphylococcus aureus, S. aureus HAV#216, Clinical, cfr) of the same molecule?
Its MIC is 128 µg/mL (≈ 231 µM).

And the MIC ([1]; Staphylococcus aureus, S. aureus HAV#217, cfr)?
Its MIC is 64 µg/mL (≈ 115 µM).

And the MIC ([1]; Staphylococcus epidermidis, S. epidermidis HAV# 275 Clinical, cfr)?
Its MIC is over 128 µg/mL.

What about the MIC ([1]; Staphylococcus epidermidis, S. epidermidis HAV# 276, cfr) of the same molecule?
Its MIC is over 128 µg/mL.

And the MIC ([1]; Staphylococcus epidermidis, S. epidermidis HAV#277, Line R)?
Its MIC is over 128 µg/mL.

And the MIC ([1]; Staphylococcus epidermidis, S. epidermidis HAV#278 Line R)?
Its MIC is over 128 µg/mL.

What about the MIC ([1]; Staphylococcus epidermidis, S. epidermidis HAV#279, Line R) of the same molecule?
Its MIC is 4 µg/mL (≈ 7.21 µM).

What about the MIC ([1]; Staphylococcus haemolyticus, S. haemolyticus 5052, Line R & Methicillin R) of the same molecule?
The MIC was over 256 µg/mL.

What about the MIC ([1]; Streptococcus pneumoniae, ATCC700673, S. pneumoniae HAV#352, ATCC 700673, MDR) of the same molecule?
Its MIC is 1 µg/mL (≈ 1.8 µM).

What about the MIC ([1]; Streptococcus pneumoniae, ATCCBAA255, S. pneumoniae HAV#354, ATCC-BAA-255) of the same molecule?
The MIC was 1 µg/mL (≈ 1.8 µM).

What about the MIC ([1]; Streptococcus pneumoniae, ATCCBAA334, S. pneumoniae HAV#353, ATCC-BAA-334) of the same molecule?
Its MIC is 1 µg/mL (≈ 1.8 µM).

What about the MIC ([1]; Streptococcus pneumoniae, S. pneumoniae HAV#356, Clinical) of the same molecule?
Its MIC is 1 µg/mL (≈ 1.8 µM).

And the MIC ([1]; Streptococcus pneumoniae, S. pneumoniae HAV#358, Clinical)?
The MIC was 1 µg/mL (≈ 1.8 µM).

And the MIC (P. aeruginosa ATCC 27853)?
Its MIC is over 64 µg/mL.

And the MIC (P. aeruginosa ΔAmex OprM)?
Its MIC is 16 µg/mL (≈ 28.9 µM).

What about the MIC (E. faecium Line R & VRE) of the same molecule?
The MIC was over 256 µg/mL.
